Patent US20220220206A1, “TREATING CHRONIC LIVER DISEASE” (Mayo Foundation for Medical Education and Research, priority 2019, published 2022)

What was measured:
[1] = system: FFC diet-fed C57BL/6J mice (diet-induced NASH); assay: FFC diet-induced NASH mouse model, VCAM-1 blockade (antibody or AGI-1067); format: in vivo; conditions: AGI-1067 25 mg/kg i.p. daily for 15 days, vs vehicle
Text: C57BL/6J male mice were purchased from Jackson Laboratory (Bar Harbor, Me.). Mice were housed and bred in a temperature-controlled 12:12-hour light-dark cycle facility with free access to diet. The mice were fed either a chow diet (5053 PicoLab Rodent Diet 20, LabDiet, St Louis, Mo.) or a diet rich in fat, fructose, and cholesterol (FFC) at 8-weeks old for 24 weeks. FFC diet consists of 40% energy as fat (12% saturated fatty acid, 0.2% cholesterol) (AIN-76A Western Diet, TestDiet, St Louis, Mo.), with fructose (23.1 g/L) and glucose (18.9 g/L) in the drinking water. The FFC diet induces steatohepatitis with pronounced hepatocellular ballooning, lipoapoptosis, and progressive fibrosis with a high fidelity to the human NASH histology and metabolic profile. At 20 weeks on the diet, the mice were randomized to receive either anti-VCAM-1 neutralizing antibody (M/K-2.7), (Genetex, GTX14360) or IgG isotype antibody (BE0088, InVivoMAb). Mice were injected with 10 mg/kg body weight of either of the antibodies intraperitoneally, twice per week for 4 weeks. Another cohort of Chow or FFC diet-fed mice was randomized to receive either vehicle or VCAM-1 inhibitor succinobucol (AGI-1067). Mice were injected with either vehicle or 25 mg/kg body weight of AGI-1067 intraperitoneally, daily for 15 days. Total caloric intake at the 3rd week of VCAM-1 antibody treatment and the first week of AGI-1067 treatment was calculated based on the weight of food and drinking water consumption. At the third week of anti-VCAM-1 neutralizing antibody treatment, metabolic parameters, including oxygen consumption, carbon dioxide production, and locomotor activity, were measured using a Comprehensive Lab Animal Monitoring System (CLAMS, Columbus Instruments, OH). Anti-VCAM-1 antibody from Bio Xcell (West Lebanon, N.H.), (BE0027) was used for the CLAMS study. Blood glucose levels and plasma insulin levels were measured using Assure 4 (Arkray, Edina, Minn.) and Ultra-Sensitive Mouse Insulin enzyme-linked immunosorbent assay (ELISA) kit (Crystal Chem Inc., Downers Grove, Ill.), respectively. Homeostasis model assessment of insulin resistance (HOMA-IR) was calculated by using the following formula: HOMA-IR=26×fasting insulin level (ng/mL)×fasting glucose level (mg/dL)/405. Mice were sacrificed under general anesthesia induced by a ketamine/xylazine cocktail (83 mg/kg ketamine, 16 mg/kg xylazine, intraperitoneal injection). All interventions were made during the light cycle. Blood and liver samples were collected for further study.
Liver triglyceride levels were measured in mouse liver homogenates. Fifty milligrams of liver tissue was homogenized in a 5% NP-40 solution. EnzyChrom Triglyceride Kit (BioAssay System, CA) was used for the assay according to the manufacturer's instruction. Photometric absorbance was read at 570 nm using a Synergy H1 microplate reader (BioTek). Serum alanine aminotransferase (ALT) levels were measured by VetScan2 (Abaxis Veterinary Diagnostics, Union City, Calif.).
Liver histology was performed using tissue fixed in 10% formalin, dehydrated, and embedded in paraffin. Hematoxylin and eosin (H&E) staining and Sirius red staining were performed. Severity of NASH was assessed using nonalcoholic fatty liver disease (NAFLD) activity score (NAS), a semi-quantitative score that accounts for steatosis, ballooned hepatocytes, and lobular inflammation. Terminal deoxynucleotidyl transferase deoxyuridine triphosphate nick-end labeling (TUNEL) assay was performed using the ApopTag Peroxidase In Situ Apoptosis Detection Kit (Millipore Sigma, St. Louis, Mo.); diaminobenzidine (DAB) was used as a peroxidase substrate (Vector Laboratories, Burlingame, Calif.); 0.5% methyl green was used for the counterstain. […]

[2] = system: VCAM-1 expression in TSEC; assay: Palmitate-induced VCAM-1 expression in TSEC; format: cell-based, mouse; conditions: 500 μM PA, 16 hours
Method: Transformed mouse liver sinusoidal endothelial cells (TSEC) were obtained. Primary human liver sinusoidal endothelial cells (LSEC) were purchased from ScienCell Research Laboratories (San Diego, Calif.). To yield primary mouse LSECs, cell suspensions obtained with liver collagenase perfusion were centrifuged at 50 g for 2 minutes to remove hepatocytes. The supernatant which includes non-parenchymal cells was subjected to LSEC isolation using CD146 MicroBeads (Miltenyi Biotec, Bergisch Gladbach, Germany) following the manufacture's instruction. […]
Cells were lysed using RIPA buffer (50 mM Tris-HCl, pH 7.4; 1% Nonidet P-40; 0.25% sodium deoxycholate; 150 mM NaCl; 1 mM EDTA with protease inhibitors) followed by centrifugation at 15,000 g for 15 minutes at 4° C. Protein concentrations of the lysates were measured by the Bradford assay method (Sigma-Aldrich). […] Proteins were detected using enhanced chemiluminescence reagents (GE Healthcare, Chicago, Ill.). β-actin and GAPDH protein levels were used as loading controls.
Total RNA was isolated with the RNeasy Mini Kit (Qiagen, Valencia, Calif.) and was reverse transcribed with moloney murine leukemia virus reverse transcriptase and oligo-dT random primers (both from Invitrogen, CA, USA). Quantification of gene expression was performed by real-time PCR using SYBR green fluorescence on a LightCycler 480 instrument (Roche Applied, IN, USA). […]

[3] = system: active ITGβ1 in Huh7 cells; assay: LPC-induced ITGβ1 activation in Huh7 cells (immunoprecipitation/immunoblot, immunofluorescence); format: cell-based, human; conditions: 10 μM SB203580
Method: Whole cell lysates (WCL) were obtained using immuno-precipitate (IP) buffer (50 mM Tris-HCl, pH 7.4; 1% Nonidet P-40; 150 mM NaCl) with protease inhibitor and phosphatase inhibitor followed by centrifugation at 15,000 g for 15 minutes at 4° C. Protein concentrations of the lysates were measured by the Bradford assay method (Sigma-Aldrich). In pull-down experiments, aliquots containing 1 mg of protein were incubated with either anti-ITGβ1 (MAB13), anti-ITGβ1 (9EG7) antibody or isotype IgG control antibody for 1 hour at 4° C., then incubated overnight with protein G sepharose beads (GE Healthcare) under rotary agitation. Pelleted proteins were washed with IP buffer for seven times, solubilized in SDS sample buffer, boiled for 10 minutes, and then subjected to SDS-PAGE and immunoblot analysis.
Huh7 cells were seeded on fibronectin-coated coverslips and fixed with 4% paraformaldehyde following LPC treatment. After permeabilization using 0.2% TritonX-100, the cells were blocked using blocking buffer (5% bovine serum albumin, 0.1% glycine in PBS) for one hour at room temperature, and then incubated with the primary antibody of interest overnight at 4° C. […] Pearson's correlation coefficient of co-localization was employed to quantify the degree of colocalization between fluorophores. Ten to 20 random fields in each group were selected for quantification and statistical analysis.

`CC(C)(Sc1cc(C(C)(C)C)c(O)c(C(C)(C)C)c1)Sc1cc(C(C)(C)C)c(OC(=O)CCC(=O)O)c(C(C)(C)C)c1` [AGI-1067, succinobucol] was tested, and the “MoMF-related hepatic inflammation by Galectin-3 staining of liver sections” value [1] was “reduced”, the NAS score [1] was “reduced” and the “hepatic mRNA expression of Acta2 (α-SMA)” value [1] was “attenuated”. The “hepatic mRNA expression of Ccr2” value [1] was “reduced”, the “hepatic mRNA expression of Cd68” value [1] was “reduced” and the “hepatic mRNA expression of Col1α1” value [1] was “attenuated”. For the same compound, the “hepatic mRNA expression of Tnfα” value [1] was “reduced”, the hepatic steatosis [1] was “did not alter” and the “liver injury as number of TUNEL positive hepatocyte” value [1] was “reduced”. The liver triglyceride content [1] was “did not alter”, the “plasma ALT levels” value [1] was “did not reach the statistical significance” and the “stellate cell activation and liver fibrogenesis by Sirius red staining” value [1] was “attenuated”. For the same compound, the “stellate cell activation and liver fibrogenesis by immunohistochemistry for α-SMA” value [1] was “attenuated”, the “PA-induced VCAM-1 protein level (Western blot)” value [2] was “inhibits” and the “PA-induced VCAM-1 mRNA expression” value ([2]; real-time qPCR) was “inhibits”.
In the case of `C[S+]([O-])c1ccc(-c2nc(-c3ccncc3)c(-c3ccc(F)cc3)[nH]2)cc1` (centres unmarked) [SB203580], the “LPC-induced activation of ITGβ1 (immunofluorescence microscopy)” value ([3]; 5 μM LPC 20 minutes) is reported as “diminished” and the “LPC-induced increase in active ITGβ1 (9EG7 immunoprecipitation, immunoblot)” value ([3]; 20 μM LPC 15-30 min) is reported as “reduced”.
